According to article PMC8964335 (Drug Design, Development and Therapy, 2022):
Entries after “also recorded” stand apart in the source; their conditions may differ. Read-outs that look alike come from different tables or passages of the source.

Legend:
[1] = no reference given; cited from earlier work
[2] = test system: breast cancer resistance protein (BCRP); details: cited from earlier work
[3] = Voriconazole steady-state check from two adjacent trough concentrations; type: in vivo, human; details: first four patients, day 4, 200 mg per 12 h without loading dose
[4] = test system: patients with hematological malignancies; assay: Adverse effects during the DDI study; type: in vivo, human
CYP2C9 = details: cited from earlier work
patients undergoing HSCT = details: initial dose 5 mg twice daily; cited from earlier work
SR-aGVHD patients = details: 10 mg ruxolitinib twice daily, cited from earlier work
healthy people = details: cited from earlier work
[5] = presence vs absence of food; cited from earlier work
[6] = human; cited from earlier work
[7] = coadministered with fluconazole vs ruxolitinib alone; cited from earlier work
[8] = Ruxolitinib pharmacokinetics without and with co-administered voriconazole; type: in vivo, human
CYP3A4 = details: cited from earlier work
[9] = test system: patients receiving ruxolitinib; details: patients receiving ruxolitinib vs control regimen; cited from earlier work
[10] = 10 mg once daily for 10 days; cited from earlier work
[11] = after pre-treatment with voriconazole vs ruxolitinib alone
[12] = ruxolitinib 5 mg co-administered with voriconazole
[13] = with voriconazole vs ruxolitinib alone

## CC[C@@H]([C@H](C)O)n1ncn(-c2ccc(N3CCN(c4ccc(OC[C@@H]5CO[C@@](Cn6cncn6)(c6ccc(F)cc6F)C5)cc4)CC3)cc2)c1=O [posaconazole]
[1]
  bioavailability: 83%

## C[C@@H](c1ncncc1F)[C@](O)(Cn1cncn1)c1ccc(F)cc1F [voriconazole]
[1]
  bioavailability: 96%
[2]
  inhibition of BCRP: does not inhibit
[3]
  difference between two trough concentrations (C12-C0)/C12×100%: less than 15%
[4]; voriconazole 200 mg per 12 h without loading dose, first four patients
  adverse effects: no adverse effects were observed

## N#CC[C@H](C1CCCC1)n1cc(-c2ncnc3[nH]ccc23)cn1 [ruxolitinib]
CYP2C9
  share of metabolism by CYP2C9: 19%
Patients undergoing HSCT
  patients developing severe cytopenia: 60%
  patients responding: 75%
SR-aGVHD patients; SR-aGVHD
  overall response on day 28: 62%
SR-aGVHD patients
  anemia, severe (grade ≥ 3) adverse event: 22%
  neutropenia, severe (grade ≥ 3) adverse event: 13%
  thrombocytopenia, severe (grade ≥ 3) adverse event: 27%
Healthy people; once daily
  maximum tolerated dose (MTD): 100 mg
Healthy people; twice daily
  maximum tolerated dose (MTD): 25 mg
[5]
  AUCinf decreased by food: 6%
  Cmax decreased by food: 24.3%
[6]
  unchanged parent molecules in urine and feces: less than 1%
[7]
  AUCinf increased by: 232%
  AUClast increased by: 234%
  Cmax increased by: 47%
[8]; [11]
  AUCinf increased by: 118.3%
  AUClast increased by: 110.1%
  Cmax increased by: 50.4%
  T1/2 increased by: 81.3%
  change in Tmax: no significant change
[8]; [12]
  CL/F % of ruxolitinib alone: 43.6%
  Cmax % of ruxolitinib alone: 150.4%
[8]; ruxolitinib 5 mg single oral dose alone, 12 patients, mean ± SD
  CL/F: 22.5 ± 6.4 L/h
[8]; [13]
  AUClast increased to: approximately 2.1 fold
  T1/2 prolonged to: 1.81 fold
[8]; with voriconazole vs ruxolitinib alone, range
  AUCinf increased to (range over patients): 1.44–3.35 fold
CYP3A4
  share of metabolism by CYP3A4: 76%
[9]
  fungal infection: 11.5%
[10]
  accumulation on repeated dosing: no cumulative effect
[4]; two single doses of 5 mg ruxolitinib
  adverse effects: No observed adverse effects; also recorded: No adverse effect
